From patent EP4559898A1, “NOVEL IONIZABLE CATIONIC LIPIDS CONTAINING THIOETHER LINKAGE” (AldexChem Kft., priority 2023, dated 2025)

How the values were obtained:
[1] = Encapsulation efficiency (RiboGreen assay) of mRNA-LNPs; assay type: physicochemical; conditions: mRNA-LNP formulated with tested lipid; RiboGreen with/without Triton X-100
Method: 1. Preparation of sample stock solutions: In the top row of the 96-well plate (Row A in the plate), add 297 µL of TE buffer pH 7.4 to a single well for each sample plus a single well for a PBS blank using a multichannel pipette. TE buffer preparation:
2. Add 3 µL of sample (at 0.5mg/ml) to these wells for a final volume of 300 µL. Add 3 µL of PBS to the blank well. Pipette to mix. This is your stock solution for each sample. The final RNA concentration of these stock solutions should be approximately 4-7 µg/mL. 3. mRNA-LNP sample setup: • a. Add 50 µL of TE buffer pH 7.5 to the two wells directly below each sample (Rows B and C in the plate). • b. Add 50 µL of sample stock solution from Row A into the wells in Rows B and C (this assay is run in duplicate. All liquid handling should be done using a multichannel pipette). • c. Add 50 µL of Triton buffer to the wells in Rows D and E (in the plate) below each sample. • d. Add 50 µL of sample stock solution from Row A into the wells in Rows D and E. 4. RiboGreen RNA standard curve setup: Dilute the RNA standard to produce an RNA stock at a final concentration of 20 µg/mL in TE buffer pH 7.4. The final volume should be 150 µL. Set up a standard curve (in duplicate) as using the RNA stock (20 µg/mL siRNA), TE buffer pH 7.5, and Triton X-100 buffer according the Table 2 below. Triton X-100 buffer preparation:
5. Once samples and standard curve are plated, incubate the plate at 37°C for 10 min to lyse mRNA-LNP in the presence of Triton X-100 buffer. 6. Meanwhile, prepare RiboGreen Solution: Sum the total number of sample wells and standard curve wells. Add three to this number, and multiply the total by 100. This is the total volume, in µL, of RiboGreen Solution needed for this assay. In a 15 mL RNAse-free Falcon tube, dilute the RiboGreen Reagent 1:100 into TE buffer pH 7.5 to the total volume calculated. 7. Addition of RiboGreen Solution and sample readings: Remove a 96-well plate from 37°C incubator; let it cool to room temperature as RiboGreen binding is somewhat temperature dependent. Add 100 µL of RiboGreen Solution to each well. Pop any air bubbles with a needle. Read using fluorescent plate reader (excitation = 480, emission = 525). 8. Sample analysis: Use the data generated by the RiboGreen standard curve to calculate the concentration of mRNA.

[2] = Cell viability assessment with Resazurin assay; assay type: cell-based; conditions: human, hela cells, average over all doses, percent of OptiMEM-only control, read-out: Cell Viability % (Average metabolic rate over all doses, Resazurin)
Excerpt: This protocol is used to determine the metabolic activity of cells as a measure for cell viability after exposure to potentially toxic substances. Resazurin is converted in mitochondria by reduction to resorufin, which has a much higher fluorescence at ~600 nm compared to unconverted resazurin. A lower amount/percentage of conversion is correlated with reduced cellular metabolism and indirectly to cellular death and toxicity. Care must be taken with interpretation of the read-out, as 50% reduction in resazurin conversion may mean 50% reduction of cellular metabolism of 100% alive cells, or 50% of cells dead, and any combination in between.
• 1. Prepare 0.25 mg/ml stock solution resazurin in fresh cell culture medium. Resazurin is auto-reducing over time in solution, especially in medium, and fresh stocks should be prepared every 2-3 days. Stocks should be stored at 4°C and protected from light. For HeLa cells, DMEM/F12 with 10% FCS is used. • 2. Dilute stock solution 10x in fresh cell culture medium to 0.025 mg/ml -> ready for application on cells. For HeLa cells, DMEM/F12 with 10% FCS is used. • 3. Collect 96-well plate and replace cell-culture spent medium with 100 µl per well resazurin solution. Add some resazurin solution for background measurement in wells not containing cells. • 4. Incubate for 50 minutes in incubator at 37°C, 5% CO2, 95% RH. • 5. Transfer resazurin solution to a fresh 96- or 384-well plate. • 6. Measure in plate reader using 540/25 nm (excitation) and 610/40 nm (emission) using standard settings (PTM low/OD-1.0). • 7. Subtract the average background measurement from all samples. Set the average of the negative controls (well receiving OptiMEM only during transfection) to 100% and express all values as percentage of the control activity. Typically, at lower levels of treatment, elevation of metabolic activity is shown, whereas for toxic substances, at toxic concentrations sigmoidal curves can be obtained, with lower activity indicating higher toxicity.

Row | Structure (SMILES) | EE [1] [%] | viability at 24 h [2] [%]
1 | CCCCCCCCC(SCCCCC)C(=O)OCCCCCCN(CCCCO)CCCCCCOC(=O)C(CCCCCCCC)SCCCCC (stereo not shown) [Example 2, ((4-hydroxybutyl)azanediyl)bis(hexane-6,1-diyl) bis(2-(pentylthio)decanoate)] | 55 | 94
2 | CCCCCCCCCCSC(CCCC)C(=O)OCCCCCCN(CCCCO)CCCCCCOC(=O)C(CCCC)SCCCCCCCCCC (stereo not shown) [Example 1, ((4-hydroxybutyl)azanediyl)bis(hexane-6,1-diyl) bis(2-(decylthio)hexanoate)] | 53 | 90
3 | CCCCCCCCC(SCCCCCCC)C(=O)OCCCCCCN(CCCCO)CCCCCCOC(=O)C(CCCCCCCC)SCCCCCCC (stereo not shown) [Example 6, ((4-hydroxybutyl)azanediyl)bis(hexane-6,1-diyl) bis(2-(heptylthio)decanoate)] | 90 | 101
4 | CCCCCCCCCCSC(CCCCCCCC)C(=O)OCCCCCCN(CCCCO)CCCCCCOC(=O)C(CCCCCCCC)SCCCCCCCCCC (stereo not shown) [Example 7, ((4-hydroxybutyl)azanediyl)bis(hexane-6,1-diyl) bis(2-(decylthio)decanoate)] | 92 | 106
5 | CCCCCCCCC(CCCCCC)C(=O)OCCCCCCN(CCCCO)CCCCCCOC(=O)C(CCCCCC)CCCCCCCC (stereo not shown) [ALC-0315 ref., reference compound] | 94 | 96
6 | CCCCCCCCCCSC(CCCC)C(=O)OCCCCCCN(CCCCCCOC(=O)C(CCCC)SCCCCCCCCCC)CCC1CCCN1C (stereo not shown) [Example 5, ((2-(1-methylpyrrolidin-2-yl)ethyl)azanediyl)bis(hexane-6,1-diyl) bis(2-(decylthio)hexanoate)] | 96 | 97
7 | CCCCCCCCCCSC(CCCC)C(=O)OCCCCCCCCN(CCCCO)CCCCCCCCOC(=O)C(CCCC)SCCCCCCCCCC (stereo not shown) [Example 3, ((4-hydroxybutyl)azanediyl)bis(octane-8,1-diyl) bis(2-(decylthio)hexanoate)] | 77 | 103
8 | CCCCCCCCCCSC(CCCC)C(=O)OCCCCCCN(CCO)CCCCCCOC(=O)C(CCCC)SCCCCCCCCCC (stereo not shown) [Example 4, ((2-hydroxyethyl)azanediyl)bis(hexane-6,1-diyl) bis(2-(decylthio)hexanoate)] | 85 | 98
9 | CCCCCCCCCCSC(CCCCCC)C(=O)OCCCCCCN(CCCCO)CCCCCCOC(=O)C(CCCCCC)SCCCCCCCCCC (stereo not shown) [Example 8, ((4-hydroxybutyl)azanediyl)bis(hexane-6,1-diyl) bis(2-(decylthio)octanoate)] | 86 | 104
10 | CCCCCCCCCCCCCCSCC(=O)OCCCCCCN(CCCCO)CCCCCCOC(=O)CSCCCCCCCCCCCCCC [Example 10, ((4-hydroxybutyl)azanediyl)bis(hexane-6,1-diyl) bis(2-(tetradecylthio)acetate)] | 83 | 99
11 | CCCCCCCSC(CCCCCC)C(=O)OCCCCCCN(CCCCO)CCCCCCOC(=O)C(CCCCCC)SCCCCCCC (stereo not shown) [Example 9, ((4-hydroxybutyl)azanediyl)bis(hexane-6,1-diyl) bis(2-(heptylthio)octanoate)] | 67 | 106
